The source of these data is US9434701B2, “Aminoquinoxaline derivatives for treatment of neurodegenerative diseases” (CENTRE NATIONAL DE LA RECHERCHE SCIENTIFIQUE (CNRS), priority 2011, dated 2016).

The structures appear in SMILES notation. “Also recorded” adds a separate entry of the source.

Data set [1] can be described thus: influence of time before euthanasia, IP route: brain extract and plasma concentration. In kind it is in vivo, C57BL\6J mice. Conditions: IP 70 mg/kg. As for the experimental part:
This study was done on C57BL\6J (instead of RjOrl:SWISS) mice treated with compound 4bc by IP or per os.
IP Route • Mice treated by IP route received a treatment of 70 mg/kg to […] of a solution of compound 4bc over 2 days comprising 2 IP injections the first day and 1 IP injection the second day.

The test system of data set [2] is dopaminergic neurons (TH+) of rat embryo ventral midbrain culture. Nature of the data set: neuritogenic activity: neurite outgrowth per cell / differentiation of TH+ neurons. It counts as cell-based. The procedure:
Quinoxaline derivatives were tested on a dopaminergic neuron spontaneous degeneration model in culture according to the protocol described in the article by F. Schmidt et al. […] This model consists of culturing rat embryo ventral midbrain. This part of the brain in culture contains a proportion of dopaminergic neurons of 5% of the total neurons; the other neurons are mainly GABAergic. These cultures are also composed of glial cells, i.e., astrocytes, oligodendrocytes and microglia. These cultures are characterized by progressive neuron death. […] To assess the neuritogenic activity of compounds according to the invention, neurite outgrowth per cell was quantified using the Neurite Outgrowth software developed by Xplora Nova. At least 60 neurons per condition were photographed and studied.

Data set [3] can be described thus: passage of the blood-brain barrier, per os study: brain extract by HPLC-MS/MS. It counts as in vivo, Rj Orl: SWISS mice. Conditions: per os 150 mg/kg twice daily 4 days + last treatment day 5; euthanized 4 h to 6 h 40 after last treatment. The procedure:
Male Rj Orl: SWISS, mice, approximately 5 weeks old and weighing between 20 and 24 g at arrival (R Janvier Breeding Center, France) were kept in the animal room at constant temperature (22±1° C.) and controlled humidity (55±20%), with a 12-hour light/dark cycle (8:00 a.m.-8:00 p.m.). During the acclimation and study period, the mice had free access to food and water. All the experiments were conducted in compliance with the conditions of decree 2001-464 of May 29, 2001 relative to animal experimentation.
The solution of compound 4bc at the concentration of 15.0 g/L to be administered was prepared in the following carrier: 0.5% Tween 80+99.5% carboxymethyl cellulose at 1%, in 0.9% NaCl in water.
Three groups were created: • mice who received the carrier orally at 10 mL/kg (Group V, n=4), • mice treated with compound 4bc orally at 150 mg/kg and at 10 mL/kg (Group T, n=6), • control mice who received no treatment (n=2). All the mice were treated or received the carrier twice daily for 4 days. On the 5th day, a last treatment was administered and the animals were euthanized between […]. after this last treatment according to the following plan: […]
Detection and quantification, based on peak area, were done by HPLC-MS/MS in MRM mode.

Regarding `Cc1nc2ccc(N)cc2nc1-c1ccccc1` [Compound 4bc], the concentration at 1 h in data set [1] (C57BL\6J, mouse, brain extract, 3 injections over 2 days, euthanasia approximately 1 h after last treatment) is 1000 ng/mL. The Brain extract concentration in data set [1] (3 injections over 2 days, euthanasia approximately 1 h after last treatment) was 1 µg/mL; in data set [1] (approximately 1 h 30 min), 0.74 µg/mL; in data set [1] (approximately 1 h 55 min) it was 0.1 µg/mL; in data set [1] (approximately 2 h 20 min), 0.09 µg/mL. Moreover, the Plasma concentration in data set [1] (approximately 1 h) was found to be 1200 ng/mL; in data set [1] (approximately 1 h 30 min), 3100 ng/mL; in data set [1] (approximately 1 h 55 min), 1700 ng/mL. In addition, in data set [2] (100 nM, versus negative control), the “TH+ neuron differentiation / neuritogenic effect (in words, FIG. 1)” value was “significant increase; also recorded: longer and more numerous neurite extensions”. Besides, in data set [2] (Rattus norvegicus, Neuron, compound at 100 nM, read-out: Diff in % of control ± SEM), the activity at 0.1 µM turned out to be 142%. Besides, in data set [3], the “detection in brain samples” value is “undetectable”.
